Laboratory results as given in US8853246B2 (Dow AgroSciences LLC, priority 2009, dated 2014).
Like-named read-outs stand apart in the source and are kept apart here.

What was measured:
[1] = system: Green Peach Aphid (Myzus Persicae); test: Insecticidal test for green peach aphid in foliar spray assay (col. MYZUPE); format: in vivo; details: Myzus persicae, 72 h, read-out: MYZUPE 200 ppm (Corrected % Control, rating)
In short: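 Cabbage seedlings with 2-3 true leaves, infested with 20-50 wingless adult and nymph aphids one day earlier, sprayed to runoff at 200 ppm (acetone/methanol stock diluted in 0.025% Tween 20), four pots per treatment. After 3 days at ~25 °C, 40% RH, live aphids counted; corrected % control versus solvent-sprayed plants.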

[2] = system: Sweetpotato Whitefly-Crawler (Bemisia Tabaci); test: Insecticidal test for sweetpotato whitefly-crawler in foliar spray assay (col. BEMITA); format: in vivo; details: Bemisia tabaci, read-out: BEMITA 200 ppm (Corrected % Control, rating)
In short: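 Cotton plants (one 3-5 cm true leaf) infested with whitefly eggs (100-300/plant), held 5-6 days at 82° F, 50% RH until crawlers developed. Sprayed to runoff at 200 ppm (acetone stock diluted in 0.025% Tween 20), four plants per treatment. Live nymphs counted after 8-9 days; % control by Abbott's correction versus solvent check.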

Structure (SMILES)	melting point [°C]	pest or weed control at 200 ppm ([1]; green peach aphid) [%]	pest or weed control at 200 ppm ([2]; sweetpotato whitefly-crawler) [%]	pest or weed control at 200 ppm ([1]; Abbott's correction formula) [%]	pest or weed control at 200 ppm ([2]; Abbott's correction formula) [%]
Cc1nc(-c2cccnc2)sc1NC(=O)[C@H](C)NC(=O)OC(C)(C)C [Compound 187]	166 to 169	80 to 100	< 80	–	–
Cc1nc(-c2cncc(Br)c2)sc1N(C)C(=O)OC(C)(C)C [Compound 251]	74 to 76	< 80	80 to 100	–	–
CSCC(C)C(=O)Nc1sc(-c2ccc(Cl)nc2)nc1C (stereo not drawn) [Compound 169]	142 to 146	< 80	80 to 100	–	–
CSCC(C)C(=O)Nc1sc(-c2cncc(F)c2)nc1C (stereo not drawn) [Compound 141]	110 to 113	80 to 100	80 to 100	–	–
COc1ncc(-c2nc(Cl)c(N(C)C(=O)CCSC)s2)cc1F [Compound 551]	92 to 94	–	–	< 80	< 80
Cc1nc(-c2ccc(Cl)nc2)sc1NC(=O)OC(C)(C)C [Compound 149]	154 to 157	< 80	< 80	–	–
CC(CS(C)(=O)=O)C(=O)N(C)c1sc(-c2cncc(F)c2)nc1Cl (stereo not drawn) [Compound 271]	151 to 154	80 to 100	80 to 100	–	–
CSCCC(=O)N(C)c1cnc(-c2cncc(F)c2)s1 [Compound 30, N-[2-(5-fluoro-pyridin-3-yl)-thiazol-5-yl]-N-methyl-3-methylsulfanyl-propionamide]	111 to 114	80 to 100	< 80	–	–
CSCCOC(=O)Nc1sc(-c2cccnc2)nc1C [Compound 181]	123 to 126	80 to 100	< 80	–	–
Cc1nc(-c2cncc(F)c2)sc1NC(=O)C1CCSC1 (stereo not drawn) [Compound 219]	209 to 213	80 to 100	< 80	–	–
Cc1nc(-c2cncc(F)c2)sc1N(C)C(=O)C1CCCN(C(=S)NC2CC2)C1 (stereo not drawn) [Compound 585]	190 to 192	–	–	80 to 100	< 80
CC(C)C(=O)Nc1sc(-c2cccnc2)nc1C(F)(F)F [Compound 136]	130 to 131	80 to 100	< 80	–	–
CC(=O)N(C)c1sc(-c2cccnc2)nc1C [Compound 193]	127 to 130	80 to 100	80 to 100	–	–
CS[C@H]1CC1C(=O)Nc1sc(-c2cncc(F)c2)nc1C (stereo partly drawn) [Compound 220]	206 to 212	80 to 100	80 to 100	–	–
CSCCC(=O)Nc1sc(-c2cccnc2)nc1C [Compound 55]	136 to 139	80 to 100	80 to 100	–	–
CSCC(C)(C)C(=O)N(C)c1sc(-c2cccnc2)nc1C [Compound 34]	83 to 88	80 to 100	80 to 100	–	–
CC(CS(C)(=O)=O)C(=O)N(C)c1sc(-c2cnc(Cl)c(F)c2)nc1Cl (stereo not drawn) [Compound 475]	55 to 61	–	–	< 80	< 80
CSCC(C)C(=O)N(C(=O)OC(C)(C)C)c1sc(-c2cncc(C#N)c2)nc1C (stereo not drawn) [Compound 158]	125 to 128	< 80	< 80	–	–
CC(C)(C)OC(=O)N(COCc1ccccc1)c1cnc(-c2cccnc2)s1 [Compound 265]	98 to 99	80 to 100	< 80	–	–
CSCC(C)C(=O)N(C(=O)OC(C)(C)C)c1sc(-c2ccc(Cl)nc2)nc1C (stereo not drawn) [Compound 153]	82 to 85	< 80	80 to 100	–	–
CSCCC(=O)Nc1sc(-c2cncc(F)c2)nc1C [Compound 142]	126 to 130	80 to 100	< 80	–	–
CSCC(=O)N(C)c1sc(-c2cccnc2)nc1Cl [Compound 369]	111 to 114	80 to 100	80 to 100	–	–
C=CC[S+]([O-])CC(C)C(=O)Nc1sc(-c2cccnc2)nc1C (stereo not drawn) [Compound 225]	147 to 149	80 to 100	80 to 100	–	–
CSCC(C)C(=O)Nc1sc(-c2ccc(F)nc2)nc1C (stereo not drawn) [Compound 159]	143 to 146	80 to 100	80 to 100	–	–
